Test results: US12263248B2, “Compounds and compositions for intracellular delivery of therapeutic agents” (ModernaTX, Inc., priority 2018, dated 2025)

Columns and labels:
luciferase (Luc) mRNA [1] = test: Luc expression in liver, lung, spleen and femur 6 hours after intravenous administration; type: in vivo; conditions: mice, 0.5 mpk; for Total Flux Liver / Total Flux Lung / Total Flux Spleen: intravenous
Outline: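 LNP-formulated mRNA given IV to mice (n=3) at 0.5 mpk; at 6 h, bioluminescence imaged ex vivo 15 min after IP D-luciferin (15 mg/mL, 200 μL), organs imaged within 25 min. Values are total flux by region of interest.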

[2] = Particle size and polydispersity index of nanoparticle compositions (Zetasizer Nano ZS); type: physicochemical
Outline: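 Particle size and PDI were measured on a Zetasizer Nano ZS with the nanoparticle compositions dispersed in 1×PBS.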

luciferase (Luc) mRNA [3] = test: Luc expression (total flux) after intramuscular administration; type: in vivo, mice; conditions: for AUC (p/s * h) / Lipid/MC3 AUC: Table 3H, Luc; for AUC (p/s * h) / Lipid/MC3 AUC / Novel lipid/MC3 expression ratio, 6 hr. time point, i.m. Luc: intramuscular; for Novel lipid/MC3 expression ratio, 6 hr. time point, i.m. Luc: relative to MC3 formulation; for i.m. Lipid/MC3 0.01 mpk, Luc, 6 h: Table 3B; for Total flux (p/s) 0.01 mpk Dose: Table 5B; for Total flux (p/s) 0.01 mpk Dose / Total flux, 0.001 mpk Dose / Total flux, 0.01 mpk Dose: 6 hours after intramuscular administration; for Total flux, 0.001 mpk Dose / Total flux, 0.01 mpk Dose: Luc mRNA and H10 mRNA
Outline: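 Mice given a single intramuscular dose of lipid nanoparticle formulations carrying modified Luc mRNA, alone or with H10 mRNA, at 0.001 or 0.01 mpk total. Luciferase expression recorded as total flux.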

[4] = Encapsulation efficiency of RNA (QUANT-IT RIBOGREEN RNA assay); type: physicochemical
Outline: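 RiboGreen fluorescence (ex ~480, em ~520 nm) compared between intact samples and Triton X-100-lysed samples after 15 min at 37 °C in TE buffer, pH 7.5. Percent free RNA is the blank-corrected intact/disrupted ratio.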

[5] = Table 1A, lipid:DSPC:cholesterol:PEG-DMG 50:10:38.5:1.5 mol %
[6] = Table 1E, compositions for subcutaneous administration
[7] = Table 1D, for subcutaneous administration, # formulated with hEPO mRNA
[8] = Table 1B, formulated with hEPO mRNA
[9] = Table 1C, compositions for subcutaneous administration
[10] = nanoparticle composition with hEPO mRNA (Table 30)

| PDI ([2]; Table 1A) | Size (nm) [2, 5] | PDI [2, 6] | Size (nm) [2, 6] | EE (%) ([4]; Table 1A) | % EE [4, 6] | PDI [2, 7] | Size (nm) [2, 7] | % EE [4, 7] | PDI [2, 8] | Size (nm) [2, 8] | EE (%) [4, 8] | PDI [2, 9] | Compound | Total Flux Liver (luciferase (Luc) mRNA [1]) | Total Flux Lung (luciferase (Luc) mRNA [1]) | Total Flux Spleen (luciferase (Luc) mRNA [1]) | AUC (p/s * h) (luciferase (Luc) mRNA [3]) | Lipid/MC3 AUC (luciferase (Luc) mRNA [3]) | Novel lipid/MC3 expression ratio, 6 hr. time point, i.m. Luc (luciferase (Luc) mRNA [3]) | Total flux (p/s) 0.01 mpk Dose (luciferase (Luc) mRNA [3]) | other results |
| --- | --- | --- | --- | --- | --- | --- | --- | --- | --- | --- | --- | --- | --- | --- | --- | --- | --- | --- | --- | --- | --- |
| 0.15 | 82.1 nm | 0.08 | 80.0 nm | 97.40% | 96% | – | – | – | – | – | – | – | CCCC/C=C\CCC(CC/C=C\CCCC)OC(=O)CCCCCCCN(CCO)CCCCCC(=O)OCCCCCCCCCCC [Compound 61, (5Z,12Z)-heptadeca-5,12-dien-9-yl 8-((2-hydroxyethyl)(6-oxo-6-(undecyloxy)hexyl)amino)octanoate] | 6.37E+08 | 3.56E+06 | 1.61E+07 | 2.30E+09 p/s * h | 3.91 | 3.51 | – | – |
| 0.14 | 88 nm | – | – | 89.52% | – | 0.09 | 74.0 nm | 96.2% | – | – | – | – | CCCCCCCCC(CC)OC(=O)CCCCCCCN(CCO)CCCCCCCC(=O)OC(CCCCCCCC)CCCCCCCC (stereo not drawn) [Compound 49, heptadecan-9-yl 8-((2-hydroxyethyl)(8-oxo-8-(undecan-3-yloxy)octyl)amino)octanoate] | 5.68E+09 | 2.52E+07 | 1.87E+08 | 7.54E+09 p/s * h | 12.82 | 12.99 | – | – |
| 0.130 | 99.5 nm | – | – | 88.31% | – | – | – | – | 0.22 | 111.9 nm | 91.0% | – | CCCCCCCCCOC(=O)CCCCCCCN(CCO)CCCCCCCCCC(=O)OC(CCCCCC)CCCCCC [Compound 147, Tridecan-7-yl 10-((2-hydroxyethyl)(8-(nonyloxy)-8-oxooctyl)amino)decanoate] | 5.24E+09 | 6.73E+06 | 8.57E+07 | – | – | – | – | – |
| 0.22 | 116.7 nm | 0.16 | 88.9 nm | 76.8% | 88% | 0.12 | 94.5 nm | 90.9% | 0.13 | 93.3 nm | 91.23% | – | CCCCCCCCCOC(=O)CCCCCCCN(CCCCCCCC(=O)OC(CCCCCCCC)CCCCCCCC)CCCNC(=S)N(C)C [Compound 111, Heptadecan-9-yl 8-((3-(3,3-dimethylthioureido)propyl)(8-(nonyloxy)-8-oxooctyl)amino)octanoate] | 4.83E+09 | 2.57E+07 | 2.44E+08 | – | – | 4.88 | 1.58E+08 p/s | i.m. Lipid/MC3 0.01 mpk, Luc, 6 h (luciferase (Luc) mRNA [3]): 4.9 |
| 0.12 | 95.1 nm | 0.12 | 93.3 nm | 97.6% | 88% | 0.13 | 87.4 nm | 93.0% | 0.15 | 88.9 nm | 95.20% | – | CCCC/C=C\CCC(CC/C=C\CCCC)OC(=O)CCCCCCCN(CCO)CCCCCCCC(=O)OCCCCCCCCC [Compound 60, (5Z,12Z)-Heptadeca-5,12-dien-9-yl 8-((2-hydroxyethyl)(8-(nonyloxy)-8-oxooctyl)amino)octanoate] | 1.54E+09 | 6.25E+06 | 7.12E+06 | – | – | 2.93 | 9.48E+07 p/s | – |
| 0.22 | 104.1 nm | 0.13 | 73.9 nm | 92.45% | 94% | – | – | – | – | – | – | – | CCCCCCCCC(CCCCCCCC)OC(=O)CCCCCCCN(CCO)CCCCCC(=O)OC(CCCCCCCC)C1CC1 (stereo not drawn) [Compound 128, Heptadecan-9-yl 8-((6-((1-cyclopropylnonyl)oxy)-6-oxohexyl)(2-hydroxyethyl)amino)octanoate] | 5.98E+09 | 2.16E+07 | 7.09E+07 | 8.59E+08 p/s * h | 1.46 | – | – | – |
| 0.17 | 92.1 nm | – | – | 92.3% | – | – | – | – | – | – | – | 0.13 | CCCCCCCCC(CC)OC(=O)CCCCCN(CCO)CCCCCCCC(=O)OC(CCCCCCCC)CCCCCCCC (stereo not drawn) [Compound 75, Heptadecan-9-yl 8-((2-hydroxyethyl)(6-oxo-6-(undecan-3-yloxy)hexyl)amino)octanoate] | 1.45E+09 | 3.92E+06 | 5.66E+06 | 1.29E+09 p/s * h | 2.20 | 1.22 | – | Size (nm) [2, 9]: 88.6 nm; % EE [4, 9]: 94.9% |
| 0.13 | 86.8 nm | – | – | 96.92% | – | – | – | – | – | – | – | 0.14 | CCCCCCCCCOC(=O)CCCCCCCN(CCCCCCCC(=O)OC(CCCCCCCC)CCCCCCCC)CCCNC(=S)NC [Compound 113, Heptadecan-9-yl 8-((3-(3-methylthioureido)propyl)(8-(nonyloxy)-8-oxooctyl)amino)octanoate] | 1.11E+09 | 5.55E+06 | 5.22E+07 | 1.01E+09 p/s * h | 1.71 | 1.58 | – | Size (nm) [2, 9]: 83.9 nm; % EE [4, 9]: 99.6% |
| 0.13 | 81.1 nm | 0.10 | 67.0 nm | 98.6% | 98% | – | – | – | 0.099 | 75 nm | 98.29% | – | CCCCCCCCCOC(=O)CCCCCCCN(CCCCCCCC(=O)OC(CCCCCCCC)CCCCCCCC)CCCNS(C)(=O)=O [Compound 109, Heptadecan-9-yl 8-((3-(methylsulfonamido)propyl)(8-(nonyloxy)-8-oxooctyl)amino)octanoate] | 8.17E+08 | 6.03E+06 | 4.81E+07 | – | – | 3.65 | 1.18E+08 p/s | i.m. Lipid/MC3 0.01 mpk, Luc, 6 h (luciferase (Luc) mRNA [3]): 3.6 |
| 0.10 | 76.8 nm | – | – | 94.69% | – | – | – | – | – | – | – | 0.10 | CCCCCCCCC(CC)OC(=O)CCCN(CCO)CCCCCCCC(=O)OC(CCCCCCCC)CCCCCCCC (stereo not drawn) [Compound 72, Heptadecan-9-yl 8-((2-hydroxyethyl)(4-oxo-4-(undecan-3-yloxy)butyl)amino)octanoate] | 7.97E+08 | 1.05E+07 | 6.40E+06 | 6.48E+08 p/s * h | 1.10 | 1.03 | – | Size (nm) [2, 9]: 77.3 nm; % EE [4, 9]: 94.9% |
| 0.09 | 69.3 nm | – | – | 98.2% | – | – | – | – | 0.12 | 70.2 nm | 96.27% | 0.16 | CCCCCCCCC(C)OC(=O)CCCCCN(CCO)CCCCCCCC(=O)OC(CCCCCCCC)CCCCCCCC (stereo not drawn) [Compound 122, Heptadecan-9-yl 8-((6-(decan-2-yloxy)-6-oxohexyl)(2-hydroxyethyl)amino)octanoate] | 2.63E+09 | 2.77E+07 | 1.56E+07 | – | – | 2.84 | 9.19E+07 p/s | Size (nm) [2, 9]: 80.2 nm; % EE [4, 9]: 94.8% |

| Compound | PDI ([2]; Table 1A) | Size (nm) [2, 5] | PDI [2, 6] | Size (nm) [2, 6] | EE (%) ([4]; Table 1A) | % EE [4, 6] | PDI [2, 7] | Size (nm) [2, 7] | % EE [4, 7] | PDI [2, 8] | Size (nm) [2, 8] | EE (%) [4, 8] | PDI [2, 9] | Total Flux Liver (luciferase (Luc) mRNA [1]) | Total Flux Lung (luciferase (Luc) mRNA [1]) | Total Flux Spleen (luciferase (Luc) mRNA [1]) | AUC (p/s * h) (luciferase (Luc) mRNA [3]) | Lipid/MC3 AUC (luciferase (Luc) mRNA [3]) | Novel lipid/MC3 expression ratio, 6 hr. time point, i.m. Luc (luciferase (Luc) mRNA [3]) | Total flux (p/s) 0.01 mpk Dose (luciferase (Luc) mRNA [3]) | other results |
| --- | --- | --- | --- | --- | --- | --- | --- | --- | --- | --- | --- | --- | --- | --- | --- | --- | --- | --- | --- | --- | --- |
| CCCCCCCCC(CCC)OC(=O)CCCCCCCN(CCO)CCCCCCCC(=O)OC(CCCCCCCC)CCCCCCCC (stereo not drawn) [Compound 50, dodecan-4-yl 8-((8-(heptadecan-9-yloxy)-8-oxooctyl)(2-hydroxyethyl)amino)octanoate] | 0.100 | 68.4 nm | – | – | 97.33% | – | – | – | – | – | – | – | – | 6.30E+09 | 2.81E+07 | 1.14E+08 | – | – | – | – | Total flux, 0.001 mpk Dose (luciferase (Luc) mRNA [3]): 6.56E+05 p/s; Total flux, 0.01 mpk Dose (luciferase (Luc) mRNA [3]): 1.13E+07 p/s |
| CCCCCCCCC(C)OC(=O)CCCCCCCN(CCO)CCCCCCCC(=O)OC(CCCCCCCC)CCCCCCCC (stereo not drawn) [Compound 48, decan-2-yl 8-((8-(heptadecan-9-yloxy)-8-oxooctyl)(2-hydroxyethyl)amino)octanoate] | 0.092 | 82.3 nm | – | – | 96.55% | – | 0.09 | 79.8 nm | 96.2% | – | – | – | – | 1.08E+10 | 3.31E+07 | 3.49E+08 | – | – | – | – | Flux in the liver (luciferase (Luc) mRNA [1]; i.v., in words): highest; Flux in the spleen (luciferase (Luc) mRNA [1]; i.v., in words): highest; PDI [2, 10]: 0.176; Size ([2]; nanoparticle composition with hEPO mRNA, standard MC3 formulation (Table 30)): 70.6 nm; Total flux, 0.001 mpk Dose (luciferase (Luc) mRNA [3]): 4.69E+05 p/s; Total flux, 0.01 mpk Dose (luciferase (Luc) mRNA [3]): 8.78E+06 p/s; EE [4, 10]: 91.92% |
